Literature values as cited in US8298992B2, “Low odor, low volatility solvent for agricultural chemicals” (Huntsman Petrochemical LLC, priority 2006, dated 2012).

Settings: solubility data available for a dimethyamide (comparison)

SMILES: CCCCCCCCCC(=O)N(C)C [N,N-dimethyldecanamide]
- Solubility in Water (wt %): 3.8% wt %
